Data from article PMC7883873, “Discovery of New Catalytic Topoisomerase II Inhibitors for Anticancer Therapeutics” (Frontiers in Oncology, 2021).

Assays:
[1] = tested on: phospho-H2AXγ expression; assay: Phospho-H2AXγ expression in multiple cancer cell models; format: cell-based; conditions: 5 µM, 4 hours
Experimental: (§1) Cell proliferation rates were measured by using the CellTitre 96 AqueousOne kit (Promega) and bromodeoxyuridine (BrdU) assay kit (Millipore) according to the manufacturer’s protocol as we have described ([51]). Cytotoxicity was evaluated by using the commercial kit (CAT# 8078, ThermoFisher). Culture media was collected and used to measure lactate dehydrogenase (LDH) levels by a colorimetric method following the manufacture’s protocol (ThermoFisher). Cell cycling was assessed by using BrdU incorporation into S-phase DNA by using the APC BrdU flow kit (BD Pharmingen; Franklin Lakes, New Jersey) according to the manufacturer’s protocol. 1 mM of BrdU was added to cells and incubated for 6 h. Cells were incubated with anti-BrdU antibody and stained with 7-AAD before processing the cells for flow cytometry ([52]). Immunoblotting assays followed the standard protocol as we have reported ([51]–[53]).

[2] = molecular target: T1, TOP2A (Homo sapiens, UniProt P11388); assay: DNA relaxation assay (supercoiled pHOT-1 plasmid); format: biochemical; design: full-length human TOP2A and TOP2B protein (TopoGEN and Inspiralis respectively); purchased TopoGEN TG1001 (human TOP2 assay kit)
T1 sequence (P11388 whole entry): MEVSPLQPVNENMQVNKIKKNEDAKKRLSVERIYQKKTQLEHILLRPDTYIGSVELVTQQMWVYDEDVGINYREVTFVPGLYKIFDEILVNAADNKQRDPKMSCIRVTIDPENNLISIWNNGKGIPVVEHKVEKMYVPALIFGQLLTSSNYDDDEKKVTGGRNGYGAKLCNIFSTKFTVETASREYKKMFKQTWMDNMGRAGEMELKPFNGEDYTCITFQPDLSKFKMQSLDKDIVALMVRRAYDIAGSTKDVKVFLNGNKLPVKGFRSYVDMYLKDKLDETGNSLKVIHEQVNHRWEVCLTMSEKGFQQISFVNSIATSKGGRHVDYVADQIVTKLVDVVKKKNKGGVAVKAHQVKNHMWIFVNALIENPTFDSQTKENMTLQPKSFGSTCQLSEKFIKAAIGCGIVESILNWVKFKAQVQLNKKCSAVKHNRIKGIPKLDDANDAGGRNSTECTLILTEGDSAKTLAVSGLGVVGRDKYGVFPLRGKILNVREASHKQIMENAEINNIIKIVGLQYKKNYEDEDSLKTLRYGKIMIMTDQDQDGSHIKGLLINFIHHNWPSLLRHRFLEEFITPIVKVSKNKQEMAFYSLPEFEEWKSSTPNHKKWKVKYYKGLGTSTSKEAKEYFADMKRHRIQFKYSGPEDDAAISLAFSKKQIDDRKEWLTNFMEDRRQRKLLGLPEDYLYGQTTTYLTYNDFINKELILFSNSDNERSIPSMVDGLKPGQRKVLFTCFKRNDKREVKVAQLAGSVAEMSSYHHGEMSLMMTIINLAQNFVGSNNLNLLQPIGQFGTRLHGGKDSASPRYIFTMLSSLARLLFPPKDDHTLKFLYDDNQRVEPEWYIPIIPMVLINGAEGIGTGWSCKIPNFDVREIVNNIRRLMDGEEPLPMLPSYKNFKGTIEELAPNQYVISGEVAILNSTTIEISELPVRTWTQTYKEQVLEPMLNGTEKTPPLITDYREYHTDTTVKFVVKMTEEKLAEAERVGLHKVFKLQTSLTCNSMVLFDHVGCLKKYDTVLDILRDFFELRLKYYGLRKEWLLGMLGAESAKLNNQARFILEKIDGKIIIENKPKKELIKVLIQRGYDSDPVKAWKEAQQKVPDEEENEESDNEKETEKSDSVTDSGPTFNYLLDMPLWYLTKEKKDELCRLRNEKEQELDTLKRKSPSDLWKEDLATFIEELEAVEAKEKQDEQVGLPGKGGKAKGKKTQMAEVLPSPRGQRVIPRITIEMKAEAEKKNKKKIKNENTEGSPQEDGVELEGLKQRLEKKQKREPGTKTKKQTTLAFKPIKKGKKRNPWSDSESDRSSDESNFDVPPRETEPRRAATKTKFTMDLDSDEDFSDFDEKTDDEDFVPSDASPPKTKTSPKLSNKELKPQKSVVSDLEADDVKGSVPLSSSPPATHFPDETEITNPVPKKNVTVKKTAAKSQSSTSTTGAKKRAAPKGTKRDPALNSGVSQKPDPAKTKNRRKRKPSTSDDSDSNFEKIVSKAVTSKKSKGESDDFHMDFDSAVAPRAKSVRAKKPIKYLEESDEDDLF
Experimental: The human TOP2A and TOP2B were used to perform DNA relaxation assays. […] The reaction was incubated at 37C for 2 h and stopped by adding 2 µl of 10% SDS and 1 µl of 250 mM of EDTA, followed by the addition of 50 µg/ml of proteinase K at 45 C for 1 h. The reaction was then resolved by electrophoresis on a 1% agarose gel at 80 V and stained with 0.5 µg/ml ethidium bromide for 15 min. DNA bands were visualized using a gel imager (Gel Doc™ EZ System) and quantified using the Image Studio™ Lite Quantification Software.

[3] = molecular target: T1, TOP2A; assay: Chromatin fractionation assay; format: cell-based; design: endogenous in cells; host or cells: K562 (the thermal shift text says HeLa, the legend says K562); K562 for chromatin fractionation; conditions: K562 cells, 0, 1, 20 µM, 24 hours
Experimental: (§2) In the thermal shift assays, cells were treated with vehicle or T60 for 1 h and split into equal aliquots to be heated at 37 to 46°. Protein lyses were collected to perform immunoblotting assays with TOP2 antibodies (Abcam 12318, Santa Cruz sc-13059 & sc-365071). Our chromatin fractionation assays followed the protocol as previously described (Méndez & Stillman, 2000; Wysocka, Reilly, & Herr, 2001). Briefly, K562 cells (4 × 10 ([7]) cells/ml) were collected and re-suspended in buffer A (10 mM HEPES [pH 7.9], 10 mM KCl, 1.5 mM MgCl2, 0.34 M sucrose, 10% glycerol, 1 mM DTT, and protease inhibitor cocktail), before Triton X-100 was added to final concentration at 0.1%. Cells were then incubated on ice for 10 min, and nuclei were collected by centrifugation at speed of 1,300g for 4 min at 4°C. The nuclei were then washed once with buffer A and then incubated with buffer B (3 mM EDTA, 0.2 mM EGTA, 1 mM DTT, and protease inhibitor cocktail [ROCHE]) for 30 min in ice. Insoluble chromatin was collected by centrifugation at 1,700g for 4 min at 4°C, and washed once with buffer B. Chromatin associated proteins were extracted by incubation with Buffer C [500 mM Tris-HCl (pH 6.8), 500 mM NaCl, and protease inhibitor cocktail (ROCHE)] followed by brief sonication. The supernatant was collected to perform immunoblotting assays with TOP2 antibodies as we have described ([51]–[53]).

[4] = molecular target: T2, TOP2B (Homo sapiens, UniProt Q02880); assay: Chromatin fractionation assay; format: cell-based; design: endogenous in cells; host or cells: K562 (the thermal shift text says HeLa, the legend says K562); K562 for chromatin fractionation; conditions: K562 cells, 0, 1, 20 µM, 24 hours
Experimental: as §2
Target sequence in this assay (Q02880 2-1626 limits assumed): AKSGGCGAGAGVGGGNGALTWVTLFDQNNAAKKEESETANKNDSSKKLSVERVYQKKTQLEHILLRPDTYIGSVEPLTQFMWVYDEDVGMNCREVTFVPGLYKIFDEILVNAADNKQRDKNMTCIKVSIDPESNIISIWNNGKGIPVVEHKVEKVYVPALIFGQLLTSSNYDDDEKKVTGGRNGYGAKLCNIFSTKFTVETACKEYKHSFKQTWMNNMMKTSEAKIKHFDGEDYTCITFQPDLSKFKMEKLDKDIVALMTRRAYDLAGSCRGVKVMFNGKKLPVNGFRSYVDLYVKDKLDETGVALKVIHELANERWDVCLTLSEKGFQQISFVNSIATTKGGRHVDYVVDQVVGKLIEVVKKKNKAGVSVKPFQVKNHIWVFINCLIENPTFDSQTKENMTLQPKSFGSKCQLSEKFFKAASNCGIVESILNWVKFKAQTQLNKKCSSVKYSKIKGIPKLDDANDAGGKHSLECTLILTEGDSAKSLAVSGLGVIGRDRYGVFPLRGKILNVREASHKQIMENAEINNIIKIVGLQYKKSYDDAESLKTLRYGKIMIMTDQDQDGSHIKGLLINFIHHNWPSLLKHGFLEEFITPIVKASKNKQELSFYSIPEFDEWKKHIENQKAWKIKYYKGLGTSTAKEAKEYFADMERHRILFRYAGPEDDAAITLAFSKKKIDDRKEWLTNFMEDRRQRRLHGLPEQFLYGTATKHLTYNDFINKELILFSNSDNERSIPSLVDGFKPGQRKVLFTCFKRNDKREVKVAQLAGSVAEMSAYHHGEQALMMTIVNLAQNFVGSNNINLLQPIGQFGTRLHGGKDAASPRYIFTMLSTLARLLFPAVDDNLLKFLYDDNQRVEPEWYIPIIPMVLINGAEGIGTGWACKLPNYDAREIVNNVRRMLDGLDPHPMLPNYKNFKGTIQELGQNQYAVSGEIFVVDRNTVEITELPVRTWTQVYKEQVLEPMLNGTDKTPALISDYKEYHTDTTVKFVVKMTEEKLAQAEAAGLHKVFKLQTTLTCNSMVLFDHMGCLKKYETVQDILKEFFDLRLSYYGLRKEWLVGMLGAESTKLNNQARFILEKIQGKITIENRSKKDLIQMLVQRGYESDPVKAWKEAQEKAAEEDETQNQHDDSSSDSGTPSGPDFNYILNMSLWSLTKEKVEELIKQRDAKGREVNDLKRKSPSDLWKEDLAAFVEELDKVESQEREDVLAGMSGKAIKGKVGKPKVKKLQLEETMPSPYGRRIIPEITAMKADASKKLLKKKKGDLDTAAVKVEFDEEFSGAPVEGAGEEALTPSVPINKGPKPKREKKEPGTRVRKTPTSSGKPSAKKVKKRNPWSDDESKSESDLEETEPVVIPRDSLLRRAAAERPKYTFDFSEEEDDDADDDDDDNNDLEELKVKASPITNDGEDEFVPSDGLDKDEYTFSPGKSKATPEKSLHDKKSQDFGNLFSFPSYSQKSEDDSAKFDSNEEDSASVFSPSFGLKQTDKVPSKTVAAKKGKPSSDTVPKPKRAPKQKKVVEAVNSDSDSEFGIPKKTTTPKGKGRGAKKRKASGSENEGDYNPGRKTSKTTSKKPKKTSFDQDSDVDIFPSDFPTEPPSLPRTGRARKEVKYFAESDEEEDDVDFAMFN

[5] = tested on: HeLa cells; assay: Confocal fluorescence microscopy; format: cell-based; conditions: 20 µM, 48 h
Experimental: Cells were fixed with 4% paraformaldehyde, treated in 0.25% Triton X-100 for 15 min, incubated with F-actin conjugated to Phalloidin-iFluor 488 (Abcam; UK), and mounted with DAPI staining mount (Vector Labs; Burlingame, USA). Cell images were captured by confocal microscopy at 63× magnification (Zeiss; Germany) ([51], [53]).

[6] = tested on: DU145; assay: Cell viability, MTS assay; format: cell-based; conditions: 0-20 µM; compared to AR-positive PCa cell lines
Experimental: as §1

[7] = tested on: NCCIT testicular cells; assay: Cell viability, MTS assay; format: cell-based; conditions: T60 alone, up to 20 µM
Experimental: as §1

[8] = tested on: PC3; assay: Cell viability, MTS assay; format: cell-based; conditions: 0-20 µM; compared to AR-positive PCa cell lines
Experimental: as §1

[9] = tested on: MR49F; assay: Cell viability, MTS assay; format: cell-based; conditions: 0-20 µM
Experimental: as §1

[10] = tested on: LNCaP; assay: Cell viability, MTS assay; format: cell-based; conditions: 0-20 µM
Experimental: as §1

[11] = tested on: LNCaP95; assay: Cell viability, MTS assay; format: cell-based; conditions: 0-20 µM
Experimental: as §1

[12] = tested on: U937 leukemia cells; assay: Cell viability, MTS assay; format: cell-based; conditions: T60 alone, up to 20 µM
Experimental: as §1

[13] = tested on: BPH1; assay: Cell viability, MTS assay; format: cell-based; conditions: 0-20 µM; compared to AR-positive PCa cell lines
Experimental: as §1

[14] = tested on: AR full-length (AR-fl); assay: Immunoblotting of AR protein levels; format: cell-based; conditions: LNCaP and LNCaP95 cells, 0-20 µM
Experimental: as §1

[15] = tested on: AR-v7; assay: Immunoblotting of AR protein levels; format: cell-based; conditions: LNCaP and LNCaP95 cells, 0-20 µM
Experimental: as §1

[16] = molecular target: T2, TOP2B; assay: K-DNA decatenation assay; format: biochemical; design: full-length human TOP2A and TOP2B protein (TopoGEN and Inspiralis respectively); purchased Inspiralis HTB205; conditions: densitometry of D-DNA bands; read-out: IC50, inhibition of TOP2B K-DNA decatenation
Experimental: The human TOP2 assay kit (#TG1001, TopoGEN, Buena Vista, CO) and TOP2B (HTB205, Inspiralis, UK) were used for K-DNA decatenation assays. […] The reaction was incubated at 37C for 2 h after which 4 µl stop solution (5× buffer is 5% Sarkosyl, 0.125% bromophenol blue, 25% glycerol) was added. The reaction was resolved by electrophoresis on a 0.8% agarose gel at 60 V and stained with 0.5 µg/ml ethidium bromide for 15 min. DNA bands were visualized using a gel imager (Gel Doc™ EZ System) and quantified using the Image Studio™ Lite Quantification Software.
Target sequence in this assay (Q02880 whole entry): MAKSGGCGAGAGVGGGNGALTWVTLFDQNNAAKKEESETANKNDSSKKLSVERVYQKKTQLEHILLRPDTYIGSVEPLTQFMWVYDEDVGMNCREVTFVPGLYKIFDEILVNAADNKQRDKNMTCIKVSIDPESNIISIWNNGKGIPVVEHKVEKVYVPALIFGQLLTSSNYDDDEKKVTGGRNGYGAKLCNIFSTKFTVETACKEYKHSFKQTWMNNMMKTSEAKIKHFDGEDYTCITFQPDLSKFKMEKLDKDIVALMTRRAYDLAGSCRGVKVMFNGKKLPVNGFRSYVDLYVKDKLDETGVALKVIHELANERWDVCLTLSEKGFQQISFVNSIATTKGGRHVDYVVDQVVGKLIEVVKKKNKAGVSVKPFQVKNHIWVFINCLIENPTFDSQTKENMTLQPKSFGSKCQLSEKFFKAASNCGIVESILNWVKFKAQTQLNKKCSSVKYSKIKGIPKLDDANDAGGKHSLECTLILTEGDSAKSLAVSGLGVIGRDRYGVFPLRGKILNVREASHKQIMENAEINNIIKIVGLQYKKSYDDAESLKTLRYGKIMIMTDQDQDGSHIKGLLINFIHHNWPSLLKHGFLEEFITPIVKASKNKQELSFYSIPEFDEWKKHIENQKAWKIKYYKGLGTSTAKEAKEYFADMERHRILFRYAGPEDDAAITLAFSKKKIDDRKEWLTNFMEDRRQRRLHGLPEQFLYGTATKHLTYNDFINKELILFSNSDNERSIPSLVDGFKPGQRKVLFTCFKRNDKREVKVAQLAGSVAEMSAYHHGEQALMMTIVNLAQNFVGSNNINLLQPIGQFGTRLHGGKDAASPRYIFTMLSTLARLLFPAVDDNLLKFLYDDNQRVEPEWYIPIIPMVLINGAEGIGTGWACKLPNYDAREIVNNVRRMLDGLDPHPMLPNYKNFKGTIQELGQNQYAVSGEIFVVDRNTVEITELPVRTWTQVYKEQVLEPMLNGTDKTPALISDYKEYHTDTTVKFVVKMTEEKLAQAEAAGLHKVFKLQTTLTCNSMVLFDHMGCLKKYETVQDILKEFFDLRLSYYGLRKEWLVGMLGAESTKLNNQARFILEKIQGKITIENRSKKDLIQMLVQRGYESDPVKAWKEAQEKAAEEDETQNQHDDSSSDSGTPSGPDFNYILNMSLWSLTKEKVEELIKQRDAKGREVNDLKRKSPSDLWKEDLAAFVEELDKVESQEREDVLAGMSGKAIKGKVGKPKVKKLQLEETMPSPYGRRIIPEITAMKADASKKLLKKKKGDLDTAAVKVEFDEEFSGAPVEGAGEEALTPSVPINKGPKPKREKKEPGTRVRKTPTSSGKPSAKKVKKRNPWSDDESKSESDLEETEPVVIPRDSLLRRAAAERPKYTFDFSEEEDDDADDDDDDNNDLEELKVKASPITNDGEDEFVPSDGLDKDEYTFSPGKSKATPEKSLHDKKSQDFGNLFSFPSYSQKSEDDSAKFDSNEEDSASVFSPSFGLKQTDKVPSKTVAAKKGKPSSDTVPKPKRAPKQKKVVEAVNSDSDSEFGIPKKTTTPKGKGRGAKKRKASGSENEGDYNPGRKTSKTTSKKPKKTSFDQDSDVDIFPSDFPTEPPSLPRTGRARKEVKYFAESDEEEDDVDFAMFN

O=C(Nc1ccc(Nc2ccccc2)cc1)c1ccc[nH]c1=S [T60]
DNA damage (phospho-H2AXγ expression) in all cell models [1]: not accompanied by DNA damage | Inhibition of TOP2A activity changing supercoiled into relaxed plasmid DNA ([2]; Figure 3B): inhibited | IC50 ([2]; densitometry of SC bands, read-out: IC50, inhibition of TOP2A plasmid DNA relaxation): ~4.7 µM | TOP2A association with chromatin [3]: reduced | TOP2B association with chromatin [4]: reduced | Cell morphology [5]: enlarged cell bodies and nuclei | Cell viability, DU145 [6]: to a much less extent | Inhibition of cell growth, NCCIT [7]: 50% | Cell viability, PC3 [8]: to a much less extent | Cell viability, MR49F [9]: strongly suppressed | Cell viability, LNCaP [10]: strongly suppressed | Cell viability, LNCaP95 [11]: strongly suppressed | Inhibition of cell growth, U937 [12]: completely inhibited | Cell viability, BPH1 [13]: to a much less extent | Protein levels of AR full-length [14]: inhibited the protein levels | Protein levels of AR-v7 [15]: inhibited the protein levels | IC50 [16]: ~3 µM
